Measured values as given in patent US11787785B2 (NOVARTIS AG, priority 2021, dated 2023).
Read-outs that look alike come from different tables or passages of the source.

Tests used:
[1] = tested on: Fetal Hemoglobin (HbF); assay: Small molecule HbF induction assay (mPB CD34+ cells erythroid differentiated, flow cytometry); assay type: cell-based; conditions: Homo sapiens, 168 h; for Emax: 7 days with compound, baseline DMSO approximately 30-40%, read-out: HbF Amax (highest percentage of cells staining positive for HbF in the fitted dose-response curve); for EC50: erythroid differentiated in presence of compound for 7 days, flow cytometry
Experimental: Cryopreserved primary human CD34^+ hematopoietic stem and progenitor cells were obtained from AllCells, LLC. The CD34^+ cells were isolated from the peripheral blood of healthy donors after mobilization by administration of granulocyte colony-stimulating factor. Cells were differentiated ex vivo toward the erythroid lineage using a 2-phase culture method. In the first phase, cells were cultured in StemSpan™ Serum-Free Expansion Media (SFEM) ([…] Technologies Inc.) supplemented with rhSCF (50 ng/mL, Peprotech®, Inc.), rhIL-6 (50 ng/mL, Peprotech®, Inc.), rhIL-3 (50 ng/mL, Peprotech®, Inc.), and rhFlt3L (50 ng/mL, Peprotech®, Inc.), and 1× antibiotic-antimycotic (Life Technologies, Thermo Fisher Scientific) for 6 days at 37° C. with 5% CO2. During the second phase, cells were cultured in erythroid differentiation media at 5,000 cells/mL in the presence of compound for 7 days at 37° C. with 5% CO2. Erythroid Differentiation Media is comprised of IMDM (Life Technologies) supplemented with insulin (10 μg/mL, Sigma Aldrich), heparin (2 U/mL Sigma Aldrich), holo-transferrin (330 μg/mL, Sigma Aldrich), human serum AB (5%, Sigma Aldrich), hydrocortisone (1 μM, […] Technologies), rhSCF (100 ng/mL, Peprotech®, Inc.), rhIL-3 (5 ng/mL, Peprotech®, Inc.), rhEPO (3 U/mL, Peprotech®, Inc.), and 1× antibiotic-antimycotic. All compounds were dissolved and diluted into dimethylsulfoxide (DMSO) and were added to culture media for a final concentration of 0.3% DMSO for testing in a 7-point, 1:3 dilution series starting at 30 uM.
Staining and Flow Cytometry
For viability analysis, samples were washed and resuspended in phosphate-buffered saline (PBS) and stained with LIVE/DEAD™ Fixable Violet Dead Cell Stain Kit (Life Technologies, L34963) for 20 minutes. Cells were then washed again with PBS and resuspended in PBS supplemented with 2% fetal bovine serum (FBS), and 2 mM EDTA to prepare for cell surface marker analysis. Cells were labeled with allophycocyanin-conjugated CD235a (1:100, BD Biosciences, 551336) and Brilliant Violet-conjugated CD71 (1:100, BD Biosciences, 563767) antibodies for 20 minutes. For analysis of cytoplasmic Fetal Hemoglobin (HbF), cells were fixed and permeabilized using the Fixation (BioLegend®, 420801) and Permeabilization Wash (BioLegend®, 421002) Buffers according to the manufacturer's protocol. During the permeabilization step, cells were stained with phycoerythrin-conjugated or FITC-conjugated HbF-specific antibody (1:10-1:25, Invitrogen™, MHFH04-4) for 30 minutes. Stained cells were washed with phosphate-buffered saline before analysis on the FACSCanto™ II flow cytometer or LSRFortessa™ (BD Biosciences). Data analysis was performed with FIowJo™ Software (BD Biosciences).
HbF Induction Activity of Compounds (Table 2)
mPB CD34+ cells were expanded for 6 days, then erythroid differentiated in the presence of compound for 7 days. Cells were fixed, stained and analyzed by flow cytometry. […] HbF Amax=the highest percentage of cells staining positive for HbF (% HbF+ cells) in the fitted dose-response curve. The baseline % HbF+ cells for DMSO-treated cells is approximately 30-40%.

[2] = target: T1, WIZ protein (HiBit-WIZ fusion protein) (Homo sapiens, UniProt O95785+Q96SW2); assay: Quantification of WIZ protein levels in HiBit tag fusion protein assay (WIZ HiBit assay in 293T cells); assay type: cell-based; set-up: remaining activity / Dmax: dose or concentration left out as unconfirmed; conditions: for Dmax at 25 µM / remaining activity at 25 µM / Dmax / remaining activity: HEK-293T; for Dmax at 25 µM: 100 − Amax; for Dmax at 25 µM / remaining activity at 25 µM: 293T cells; for Dmax at 25 µM / Dmax: read-out: % degradation of WIZ (100 − Amax); for remaining activity at 25 µM: DMSO-normalized, curve-fitted percentage of WIZ-HiBit remaining at 25 uM; for remaining activity at 25 µM / remaining activity: read-out: WIZ Amax; for DC50: WIZ HiBit assay in 293T cells, 10-point, 5-fold dose response, highest concentration 25 μM, about 18 hours, read-out: WIZ AC50
T1 construct: expressed in transfected cells
In short: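 HiBit-tagged WIZ (N-terminal tag, HSVTK promoter) stably expressed single-copy in 293T cells; 10-point 1:5 compound series, top 25 μM, ~18 h at 37 °C. Lytic HiBit/LgBit luminescence read; Amax = curve-fitted % WIZ-HiBit remaining at 25 μM, DMSO normalized to 100%.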

[3] = tested on: HbF; conditions: in vivo; cited from earlier work
[4] = tested on: HbF; conditions: ex vivo, human primary erythroid cells; cited from earlier work

T1 sequence (O95785 whole entry, the tested form may be a part): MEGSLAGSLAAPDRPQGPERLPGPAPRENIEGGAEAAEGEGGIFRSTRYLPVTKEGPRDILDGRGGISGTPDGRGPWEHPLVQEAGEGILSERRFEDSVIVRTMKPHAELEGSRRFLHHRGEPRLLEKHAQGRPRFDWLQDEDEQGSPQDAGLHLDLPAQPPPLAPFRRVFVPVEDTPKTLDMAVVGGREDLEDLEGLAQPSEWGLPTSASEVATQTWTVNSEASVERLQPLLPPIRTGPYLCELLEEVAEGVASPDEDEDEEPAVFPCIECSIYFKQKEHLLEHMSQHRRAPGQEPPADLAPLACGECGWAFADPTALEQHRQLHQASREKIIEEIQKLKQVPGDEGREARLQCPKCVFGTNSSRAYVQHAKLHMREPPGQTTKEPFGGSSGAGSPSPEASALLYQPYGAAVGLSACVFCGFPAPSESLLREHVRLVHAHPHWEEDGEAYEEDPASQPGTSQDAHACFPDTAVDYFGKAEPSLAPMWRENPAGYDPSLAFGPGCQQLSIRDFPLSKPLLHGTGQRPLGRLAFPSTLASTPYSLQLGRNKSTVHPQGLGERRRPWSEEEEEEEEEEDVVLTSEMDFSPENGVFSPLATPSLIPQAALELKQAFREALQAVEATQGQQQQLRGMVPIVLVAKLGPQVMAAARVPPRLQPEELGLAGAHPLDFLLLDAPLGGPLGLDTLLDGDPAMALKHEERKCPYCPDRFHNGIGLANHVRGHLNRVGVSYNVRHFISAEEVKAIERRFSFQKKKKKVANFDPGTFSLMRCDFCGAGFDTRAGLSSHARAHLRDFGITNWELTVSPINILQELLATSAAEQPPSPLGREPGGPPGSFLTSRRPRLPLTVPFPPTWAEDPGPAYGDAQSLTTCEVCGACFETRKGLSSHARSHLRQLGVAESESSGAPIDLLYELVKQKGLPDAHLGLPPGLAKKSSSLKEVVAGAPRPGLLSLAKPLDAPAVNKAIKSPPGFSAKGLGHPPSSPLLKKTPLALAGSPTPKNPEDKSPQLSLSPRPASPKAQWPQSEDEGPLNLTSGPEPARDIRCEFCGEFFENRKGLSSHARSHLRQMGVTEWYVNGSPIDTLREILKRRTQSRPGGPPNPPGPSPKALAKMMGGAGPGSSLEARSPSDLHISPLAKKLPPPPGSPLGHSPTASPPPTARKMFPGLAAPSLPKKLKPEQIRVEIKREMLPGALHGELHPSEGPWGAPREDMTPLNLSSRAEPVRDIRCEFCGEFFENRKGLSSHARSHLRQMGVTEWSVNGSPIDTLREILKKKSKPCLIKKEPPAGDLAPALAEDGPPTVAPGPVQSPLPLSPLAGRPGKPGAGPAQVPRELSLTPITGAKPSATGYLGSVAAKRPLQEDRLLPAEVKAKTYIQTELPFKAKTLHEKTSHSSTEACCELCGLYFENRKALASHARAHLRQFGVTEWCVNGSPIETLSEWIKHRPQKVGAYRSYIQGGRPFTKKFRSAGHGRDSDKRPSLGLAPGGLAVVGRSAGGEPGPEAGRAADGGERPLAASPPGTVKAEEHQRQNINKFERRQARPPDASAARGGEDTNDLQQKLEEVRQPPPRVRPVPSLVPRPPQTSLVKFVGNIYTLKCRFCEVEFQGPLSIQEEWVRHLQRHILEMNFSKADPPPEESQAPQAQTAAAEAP
T1 sequence (Q96SW2 whole entry, the tested form may be a part): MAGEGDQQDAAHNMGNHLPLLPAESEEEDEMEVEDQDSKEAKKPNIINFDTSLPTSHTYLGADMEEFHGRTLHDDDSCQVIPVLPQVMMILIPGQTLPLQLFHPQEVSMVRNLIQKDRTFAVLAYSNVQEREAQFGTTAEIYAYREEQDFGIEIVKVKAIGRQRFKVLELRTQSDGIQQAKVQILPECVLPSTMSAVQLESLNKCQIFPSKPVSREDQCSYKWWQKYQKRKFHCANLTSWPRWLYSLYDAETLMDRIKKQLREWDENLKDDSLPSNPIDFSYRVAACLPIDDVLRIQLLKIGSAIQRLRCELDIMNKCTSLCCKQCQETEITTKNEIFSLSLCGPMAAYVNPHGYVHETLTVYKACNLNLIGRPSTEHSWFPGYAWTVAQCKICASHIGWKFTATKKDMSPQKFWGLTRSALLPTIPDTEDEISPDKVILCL
T1 sequence (Q16531 whole entry partner, the tested form may be a part): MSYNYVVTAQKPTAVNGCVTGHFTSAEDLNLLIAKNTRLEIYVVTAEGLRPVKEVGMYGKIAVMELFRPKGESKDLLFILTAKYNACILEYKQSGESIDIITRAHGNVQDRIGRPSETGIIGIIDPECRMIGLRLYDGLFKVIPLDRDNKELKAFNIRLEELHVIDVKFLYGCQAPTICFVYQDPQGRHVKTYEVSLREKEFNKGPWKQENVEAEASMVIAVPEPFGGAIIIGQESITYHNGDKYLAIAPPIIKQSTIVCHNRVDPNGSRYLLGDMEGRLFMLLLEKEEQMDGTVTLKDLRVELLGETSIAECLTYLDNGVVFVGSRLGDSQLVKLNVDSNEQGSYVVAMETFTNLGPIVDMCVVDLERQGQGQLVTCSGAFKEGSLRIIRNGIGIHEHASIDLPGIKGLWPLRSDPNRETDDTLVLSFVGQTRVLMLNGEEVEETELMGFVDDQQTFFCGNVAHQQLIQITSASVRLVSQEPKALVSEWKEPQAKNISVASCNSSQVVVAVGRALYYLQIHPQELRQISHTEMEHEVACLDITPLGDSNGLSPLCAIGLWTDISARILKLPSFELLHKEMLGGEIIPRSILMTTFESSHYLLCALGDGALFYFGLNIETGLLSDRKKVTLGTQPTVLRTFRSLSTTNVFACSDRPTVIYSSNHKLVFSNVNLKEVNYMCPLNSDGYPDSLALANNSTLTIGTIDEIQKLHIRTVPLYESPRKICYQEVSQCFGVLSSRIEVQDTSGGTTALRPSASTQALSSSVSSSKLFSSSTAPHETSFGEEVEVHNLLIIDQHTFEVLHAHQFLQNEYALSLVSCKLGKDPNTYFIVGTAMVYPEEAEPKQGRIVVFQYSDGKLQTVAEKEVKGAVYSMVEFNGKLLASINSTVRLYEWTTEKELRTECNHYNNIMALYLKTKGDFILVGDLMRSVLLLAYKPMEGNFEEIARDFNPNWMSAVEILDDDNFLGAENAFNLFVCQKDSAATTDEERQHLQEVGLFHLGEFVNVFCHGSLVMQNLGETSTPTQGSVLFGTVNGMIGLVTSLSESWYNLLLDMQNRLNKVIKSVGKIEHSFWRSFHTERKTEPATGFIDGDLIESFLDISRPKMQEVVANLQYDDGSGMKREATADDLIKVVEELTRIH

CC(C)CN1CCN(Cc2ccn3ncc(N4CCC(=O)NC4=O)c3c2)C[C@@H]1C [Example 203, (S)-1-(5-((4-isobutyl-3-methylpiperazin-1-yl)methyl)pyrazolo[1,5-a]pyridin-3-yl)dihydropyrimidine-2,4(1H,3H)-dione] gave an Emax [1] of 82%, an EC50 [1] of 45 nM and a Dmax at 25 µM [2] of 84%. For the same molecule, the remaining activity at 25 µM [2] was 16% and the DC50 [2] was 25 nM.
CC(C)CN1CC[C@@H](Cc2ccn3ncc(N4CCC(=O)NC4=O)c3c2)C[C@@H]1C [Example 145] showed an Emax [1] of 76%, an EC50 [1] of 30 nM and a Dmax at 25 µM [2] of 84%. For the same molecule, the remaining activity at 25 µM [2] was 16% and the DC50 [2] was 25 nM.
In the case of Nc1cccc2c1CN(C1CCC(=O)NC1=O)C2=O (stereo not shown) [lenalidomide], the HbF induction [3] is given as “induce HbF” and the HbF induction [4] is given as “induce HbF”.
In the case of C[C@H]1C[C@H](Cc2ccn3ncc(N4CCC(=O)NC4=O)c3c2)CCN1C(=O)C1CC1 [Example 287, 1-(5-(((2S,4R)-1-(cyclopropanecarbonyl)-2-methylpiperidin-4-yl)methyl)pyrazolo[1,5-a]pyridin-3-yl)dihydropyrimidine-2,4(1H,3H)-dione], the Emax [1] is reported as 63%, the EC50 [1] is reported as 60 nM and the Dmax [2] is reported as 81%. The remaining activity [2] was 19% and the DC50 [2] was 15 nM.
Work on CCS(=O)(=O)N1CC[C@@H](Cc2ccn3ncc(N4CCC(=O)NC4=O)c3c2)C[C@@H]1C [Example 283, 1-(5-(((2S,4R)-1-(ethylsulfonyl)-2-methylpiperidin-4-yl)methyl)pyrazolo[1,5-a]pyridin-3-yl)dihydropyrimidine-2,4(1H,3H)-dione] yielded an Emax [1] of 61%, an EC50 [1] of 127 nM and a Dmax [2] of 80%. For the same molecule, the remaining activity [2] was 19% and the DC50 [2] was 29 nM.
O=C1CCN(c2cnn3ccc(CN4CCN(CC5CCCCC5)CC4)cc23)C(=O)N1 [Example 156, 1-(5-((4-(cyclohexylmethyl)piperazin-1-yl)methyl)pyrazolo[1,5-a]pyridin-3-yl)dihydropyrimidine-2,4(1H,3H)-dione] showed an Emax [1] of 81%, an EC50 [1] of 12 nM and a Dmax [2] of 86%. For the same molecule, the remaining activity [2] was 14% and the DC50 [2] was 23 nM.
For C[C@H]1CN(Cc2ccn3ncc(N4CCC(=O)NC4=O)c3c2)CCN1CC1CCC(F)(F)CC1 [Example 207], the Emax [1] was 85%, the EC50 [1] was 89 nM and the Dmax at 25 µM [2] was 86%. The remaining activity at 25 µM [2] was 14% and the DC50 [2] was 14 nM.
O=C1CCN(c2cnn3ccc(CN4CCN(CC5CCOCC5)CC4)cc23)C(=O)N1 [Example 160] showed an Emax [1] of 84%, an EC50 [1] of 999 nM and a Dmax at 25 µM [2] of 82%. It also gave a remaining activity at 25 µM [2] of 18% and a DC50 [2] of 45 nM.
In the case of C[C@H]1C[C@H](Cc2ccn3ncc(N4CCC(=O)NC4=O)c3c2)CCN1CC1CCOCC1 [Example 142], the Emax [1] is reported as 89%, the EC50 [1] is reported as 38 nM and the Dmax at 25 µM [2] is reported as 89%. For the same molecule, the remaining activity at 25 µM [2] was 11% and the DC50 [2] was 11 nM.
For C[C@H]1C[C@H](Cc2ccn3ncc(N4CCC(=O)NC4=O)c3c2)CCN1CC1CCC(F)(F)CC1 [Example 141, 1-(5-(((2S,4R)-1-((4,4-difluorocyclohexyl)methyl)-2-methylpiperidin-4-yl)methyl)pyrazolo[1,5-a]pyridin-3-yl)dihydropyrimidine-2,4(1H,3H)-dione], the Emax [1] was 90%, the EC50 [1] was 6 nM and the Dmax at 25 µM [2] was 91%. The remaining activity at 25 µM [2] was 9% and the DC50 [2] was 2 nM.
Molecule CO[C@H]1CC[C@H](CN2CCN(Cc3ccn4ncc(N5CCC(=O)NC5=O)c4c3)C[C@@H]2C)CC1 [Example 210, 1-(5-(((S)-4-(((1r,4S)-4-methoxycyclohexyl)methyl)-3-methylpiperazin-1-yl)methyl)pyrazolo[1,5-a]pyridin-3-yl)dihydropyrimidine-2,4(1H,3H)-dione] has an Emax [1] of 86%, an EC50 [1] of 64 nM and a Dmax at 25 µM [2] of 86%. For the same molecule, the remaining activity at 25 µM [2] was 14% and the DC50 [2] was 16 nM.
O=C1CCN(c2cnn3ccc(CC4CCN(Cc5cccnc5)CC4)cc23)C(=O)N1 [Example 17, 1-(5-((1-(pyridin-3-ylmethyl)piperidin-4-yl)methyl)pyrazolo[1,5-a]pyridin-3-yl)dihydropyrimidine-2,4(1H,3H)-dione] gave an Emax [1] of 80%, an EC50 [1] of 266 nM and a Dmax at 25 µM [2] of 82%. It also gave a remaining activity at 25 µM [2] of 18% and a DC50 [2] of 48 nM.
For CO[C@H]1CC[C@H](CN2CCN(Cc3ccn4ncc(N5CCC(=O)NC5=O)c4c3)CC2)CC1 [Example 179, 1-(5-((4-(((1r,4r)-4-methoxycyclohexyl)methyl)piperazin-1-yl)methyl)pyrazolo[1,5-a]pyridin-3-yl)dihydropyrimidine-2,4(1H,3H)-dione], the Emax [1] was 79%, the EC50 [1] was 74 nM and the Dmax at 25 µM [2] was 82%. The remaining activity at 25 µM [2] was 18% and the DC50 [2] was 49 nM.
CC(C)CN1CCC(Cc2ccn3ncc(N4CCC(=O)NC4=O)c3c2)CC1 [Example 109, 1-(5-((1-isobutylpiperidin-4-yl)methyl)pyrazolo[1,5-a]pyridin-3-yl)dihydropyrimidine-2,4(1H,3H)-dione] showed an Emax [1] of 77%, an EC50 [1] of 129 nM and a Dmax at 25 µM [2] of 82%. For the same molecule, the remaining activity at 25 µM [2] was 18% and the DC50 [2] was 39 nM.
C[C@H]1CN(Cc2ccn3ncc(N4CCC(=O)NC4=O)c3c2)CCN1C[C@H]1C[C@@H](F)[C@@H](F)C1 [Example 318, 1-(5-(((S)-4-(((1r,3R,4S)-3,4-difluorocyclopentyl)methyl)-3-methylpiperazin-1-yl)methyl)pyrazolo[1,5-a]pyridin-3-yl)dihydropyrimidine-2,4(1H,3H)-dione] gave a Dmax at 25 µM [2] of 87%, a remaining activity at 25 µM [2] of 13% and a DC50 [2] of 10 nM.
O=C1CCN(c2cnn3ccc(CC4CCN(C(=O)Oc5ccccc5)CC4)cc23)C(=O)N1 [Example 94] showed a Dmax at 25 µM [2] of 62%, a remaining activity at 25 µM [2] of 38% and a DC50 [2] of 3990 nM.
Work on O=C1CCN(c2cnn3ccc(CN4CCN(CC5CC5)CC4)cc23)C(=O)N1 [Example 189, 1-(5-((4-(cyclopropylmethyl)piperazin-1-yl)methyl)pyrazolo[1,5-a]pyridin-3-yl)dihydropyrimidine-2,4(1H,3H)-dione] yielded a Dmax at 25 µM [2] of 71%, a remaining activity at 25 µM [2] of 29% and a DC50 [2] of 191 nM.
C[C@H]1C[C@H](Cc2ccn3ncc(N4CCC(=O)NC4=O)c3c2)CCN1CC1CCCCC1 [Example 143] gave a Dmax at 25 µM [2] of 88%, a remaining activity at 25 µM [2] of 12% and a DC50 [2] of 4 nM.
Molecule CC(C)CN1CCN(Cc2ccn3ncc(N4CCC(=O)NC4=O)c3c2)CC1(C)C [Example 233, 1-(5-((4-isobutyl-3,3-dimethylpiperazin-1-yl)methyl)pyrazolo[1,5-a]pyridin-3-yl)dihydropyrimidine-2,4(1H,3H)-dione] has a Dmax at 25 µM [2] of 40%, a remaining activity at 25 µM [2] of 60% and a DC50 [2] of 589 nM.
Molecule C[C@H]1CN(Cc2ccn3ncc(N4CCC(=O)NC4=O)c3c2)CCN1C(=O)C1CCCCC1 [Example 342, (S)-1-(5-((4-(cyclohexanecarbonyl)-3-methylpiperazin-1-yl)methyl)pyrazolo[1,5-a]pyridin-3-yl)dihydropyrimidine-2,4(1H,3H)-dione] has a Dmax at 25 µM [2] of 37%, a remaining activity at 25 µM [2] of 63% and a DC50 [2] of 916 nM.
